Data as given in patent publication US12134610B2, “Somatostatin subtype-2 receptor (SST2R) targeted therapeutics and uses thereof” (priority 2022, dated 2024).
Where two headings read alike, the source gives them in different places. Starred links: 1 amine or outer side, 2 acyl side, 3 side chain; linkers in the order of their positions; H or OH if unused. Non-standard residues stand in square brackets, D forms with d. Residues, ends and D or L forms follow the SMILES beside them. *: point of attachment. PABC(3-O-βDGlc) = O=C(OCc1ccc(N[*:1])c(O[C@@H]2O[C@H](CO)[C@@H](O)[C@H](O)[C@H]2O)c1)[*:2]; X1 = Cc1cc(F)cc(-c2cnc(NCCNC(=O)CCOCCC(=O)*)c(-c3nc4ccc(Cl)cc4[nH]3)c2N2CCC(N)CC2)c1; Dolaproine = CO[C@@H]([C@@H]1CCCN1)[C@@H](C)C(=O)O; Dil = CC[C@H](C)[C@H](NC)[C@@H](CC(=O)O)OC; X2 = C[C@@H](N*)[C@@H](O)c1ccccc1; Cit = NC(=O)NCCC[C@H](N)C(=O)O; NMeV = CN[C@H](C(=O)O)C(C)C

Columns and labels:
Format in all cases: cell-based
[1] = system: NCI-H524 (ATCC) human small cell lung cancer cells
Summary of the method: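 CellTiter-Glo luminescence after a 2 h SMDC pulse (top dose 1 uM, 2-fold dilutions, 11 points), medium wash, then 70 h recovery. Cells were seeded at 5,000/well and dosed 24 h later. % inhibition vs control gave IC50 via four-parameter fit.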

[2] = target: T1, human somatostatin receptor subtype 2 (Homo sapiens, UniProt P30874); assay: Functional cAMP assay for SSTR2 agonists (HTRF) in CHO-K1 cells; conditions: CHO-K1 cells stably expressing human SST2, 20 min
T1 construct: expressed in transfected cells
T1 sequence (P30874 whole entry): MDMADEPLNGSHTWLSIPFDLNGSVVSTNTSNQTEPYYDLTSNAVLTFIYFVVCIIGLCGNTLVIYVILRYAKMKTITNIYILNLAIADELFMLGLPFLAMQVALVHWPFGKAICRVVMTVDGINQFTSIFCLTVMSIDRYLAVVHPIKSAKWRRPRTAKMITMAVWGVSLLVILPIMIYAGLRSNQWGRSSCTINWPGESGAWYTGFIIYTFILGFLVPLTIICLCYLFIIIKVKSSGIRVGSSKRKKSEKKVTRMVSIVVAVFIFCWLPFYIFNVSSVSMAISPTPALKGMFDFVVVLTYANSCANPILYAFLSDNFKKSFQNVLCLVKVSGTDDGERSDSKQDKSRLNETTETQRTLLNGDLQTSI
Summary of the method: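 Agonism scored as loss of NKH477 (1.6 μM)-driven cAMP, with IBMX present, after 20 min, 37° C. exposure of stably transfected CHO-K1 cells to compound dilutions (typically 0-10,000 nM). Lysates read by time-resolved FRET; cAMP interpolated from standard curve and EC50 derived.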

SST2 = target: T2, SST2 (Homo sapiens, UniProt P30874); assay: PathHunter CHO-K1 SST2 internalization assay; conditions: PathHunter CHO-K1 SST2, 90 min
T2 construct: host or cells: PathHunter CHO-K1 SST2 cells
T2 sequence (P30874 whole entry): as above
Summary of the method: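 IC50 comes from four-parameter curves on background-corrected duplicates of Beta-Glo luminescence, read after 60 min at room temperature in the dark. Before that, CHO-K1 SST2 internalization cells (48 h post-seeding) received SMDC as eleven threefold dilutions, 10 uM highest final, for 90 min at 37 C.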

SMILES	EC50 ([1]; 2 h)	EC50 ([2]; read-out: hSST2 cAMP Avg EC50)	EC50 (SST2; read-out: Internalization EC50)	EC50 ([1]; 2 h treatment, washout, additional 70 h, read-out: H524 EC50)	EC50 ([2]; hSST2 cAMP Avg EC50 (nM))	EC50 (SST2; Internalization EC50 (nM))
CC[C@H](C)[C@@H]([C@@H](CC(=O)N1CCC[C@H]1[C@H](OC)[C@@H](C)C(=O)N[C@H](C)[C@@H](O)c1ccccc1)OC)N(C)C(=O)[C@@H](NC(=O)[C@H](C(C)C)N(C)C(=O)OCc1ccc(NC(=O)[C@H](CCCNC(N)=O)NC(=O)[C@@H](NC(=O)CCOCCC(=O)NCCNc2ncc(-c3cc(C)cc(F)c3)c(N3CCC(N)CC3)c2-c2nc3ccc(Cl)cc3[nH]2)C(C)C)cc1C(N)=O)C(C)C [Compound 122]	7.9 nM	0.18 nM	3.8 nM	–	–	–
CC[C@H](C)[C@@H]([C@@H](CC(=O)N1CCC[C@H]1[C@H](OC)[C@@H](C)C(=O)N[C@H](C)[C@@H](O)c1ccccc1)OC)N(C)C(=O)[C@@H](NC(=O)[C@H](C(C)C)N(C)C(=O)OCc1ccc(NC(=O)[C@H](CCCNC(N)=O)NC(=O)[C@@H](NC(=O)CCOCCOCCOCCOCCC(=O)NCCNc2ncc(-c3cc(C)cc(F)c3)c(N3CCC(N)CC3)c2-c2nc3ccc(Cl)cc3[nH]2)C(C)C)cc1C(N)=O)C(C)C [Compound 123]	18 nM	0.13 nM	7 nM	–	–	–
CC[C@H](C)[C@@H]([C@@H](CC(=O)N1CCC[C@H]1[C@H](OC)[C@@H](C)C(=O)N[C@H](C)[C@@H](O)c1ccccc1)OC)N(C)C(=O)[C@@H](NC(=O)[C@H](C(C)C)N(C)C(=O)OCc1ccc(NC(=O)[C@H](CCCNC(N)=O)NC(=O)[C@@H](NC(=O)CCOCCOCCOCCOCCC(=O)NCCNc2ncc(-c3cc(C)cc(F)c3)c(N3CCC(N)CC3)c2-c2nc3ccc(Cl)cc3[nH]2)C(C)C)cc1C(=O)NCC(N)=O)C(C)C [Compound 124]	5.3 nM	0.16 nM	5.6 nM	–	–	–
CC[C@H](C)[C@@H]([C@@H](CC(=O)N1CCC[C@H]1[C@H](OC)[C@@H](C)C(=O)N[C@H](C)[C@@H](O)c1ccccc1)OC)N(C)C(=O)[C@@H](NC(=O)[C@H](C(C)C)N(C)C(=O)OCc1ccc(NC(=O)[C@H](CCCNC(N)=O)NC(=O)[C@@H](NC(=O)CCOCCC(=O)NCCNc2ncc(-c3cc(C)cc(F)c3)c(N3CCC(N)CC3)c2-c2nc3ccc(Cl)cc3[nH]2)C(C)C)cc1C(=O)NCC(N)=O)C(C)C [Compound 125]	3.4 nM	0.17 nM	3.9 nM	–	–	–
CC[C@@]1(O)C(=O)OCc2c1cc1n(c2=O)Cc2c-1nc1cc(F)c(C)c3c1c2[C@@H](NC(=O)OCc1ccc(NC(=O)[C@H](CCCNC(N)=O)NC(=O)[C@@H](NC(=O)CCOCCC(=O)NCCNc2ncc(-c4cc(C)cc(F)c4)c(N4CCC(N)CC4)c2-c2nc4ccc(Cl)cc4[nH]2)C(C)C)c(O[C@@H]2O[C@H](C(=O)O)[C@@H](O)[C@H](O)[C@H]2O)c1)CC3 [Compound 126]	–	–	–	100 nM	0.29 nM	3.4 nM
CC[C@H](C)[C@@H]([C@@H](CC(=O)N1CCC[C@H]1[C@H](OC)[C@@H](C)C(=O)N[C@H](C)[C@@H](O)c1ccccc1)OC)N(C)C(=O)[C@@H](NC(=O)[C@H](C(C)C)N(C)C(=O)OCc1ccc(NC(=O)[C@H](CCCNC(N)=O)NC(=O)[C@@H](NC(=O)CCOCCNCCNc2ncc(-c3cc(C)cc(F)c3)c(N3CCC(N)CC3)c2-c2nc3ccc(Cl)cc3[nH]2)C(C)C)c(O[C@@H]2O[C@H](C(=O)O)[C@@H](O)[C@H](O)[C@H]2O)c1)C(C)C [Compound 128]	31 nM	0.18 nM	8.7 nM	–	–	–
CC[C@H](C)[C@@H]([C@@H](CC(=O)N1CCC[C@H]1[C@H](OC)[C@@H](C)C(=O)N[C@H](C)[C@@H](O)c1ccccc1)OC)N(C)C(=O)[C@@H](NC(=O)[C@H](C(C)C)N(C)C(=O)OCc1ccc(NC(=O)[C@H](CCCNC(N)=O)NC(=O)[C@@H](NC(=O)CCOCCOCCOCCOCCNCCNc2ncc(-c3cc(C)cc(F)c3)c(N3CCC(N)CC3)c2-c2nc3ccc(Cl)cc3[nH]2)C(C)C)c(O[C@@H]2O[C@H](C(=O)O)[C@@H](O)[C@H](O)[C@H]2O)c1)C(C)C [Compound 129]	290 nM	0.34 nM	21 nM	–	–	–
CC[C@H](C)[C@@H]([C@@H](CC(=O)N1CCC[C@H]1[C@H](OC)[C@@H](C)C(=O)N[C@H](C)[C@@H](O)c1ccccc1)OC)N(C)C(=O)[C@@H](NC(=O)[C@H](C(C)C)N(C)C(=O)OCc1ccc(NC(=O)[C@H](C)NC(=O)[C@@H](NC(=O)CCOCCNCCNc2ncc(-c3cc(C)cc(F)c3)c(N3CCC(N)CC3)c2-c2nc3ccc(Cl)cc3[nH]2)C(C)C)c(O[C@@H]2O[C@H](C(=O)O)[C@@H](O)[C@H](O)[C@H]2O)c1)C(C)C [Compound 130]	140 nM	0.29 nM	25 nM	–	–	–
CC[C@H](C)[C@@H]([C@@H](CC(=O)N1CCC[C@H]1[C@H](OC)[C@@H](C)C(=O)N[C@H](C)[C@@H](O)c1ccccc1)OC)N(C)C(=O)[C@@H](NC(=O)[C@H](C(C)C)N(C)C(=O)OCc1ccc(NC(=O)[C@H](C)NC(=O)[C@@H](NC(=O)CCOCCC(=O)NCCNc2ncc(-c3cc(C)cc(F)c3)c(N3CCC(N)CC3)c2-c2nc3ccc(Cl)cc3[nH]2)C(C)C)c(O[C@@H]2O[C@H](CO)[C@@H](O)[C@H](O)[C@H]2O)c1)C(C)C [Compound 131]	4 nM	0.13 nM	5.2 nM	–	–	–
CC[C@H](C)[C@@H]([C@@H](CC(=O)N1CCC[C@H]1[C@H](OC)[C@@H](C)C(=O)N[C@H](C)[C@@H](O)c1ccccc1)OC)N(C)C(=O)[C@@H](NC(=O)[C@H](C(C)C)N(C)C(=O)OCc1ccc(NC(=O)[C@H](CCCNC(N)=O)NC(=O)[C@@H](NC(=O)CCOCCC(=O)NCCNc2ncc(-c3cc(C)cc(F)c3)c(N3CCC(N)CC3)c2-c2nc3ccc(Cl)cc3[nH]2)C(C)C)c(O[C@@H]2O[C@H](C(=O)O)[C@@H](O)[C@H](O)[C@H]2O)c1)C(C)C [Compound 132]	22 nM	0.2 nM	5.7 nM	–	–	–
CC[C@H](C)[C@@H]([C@@H](CC(=O)N1CCC[C@H]1[C@H](OC)[C@@H](C)C(=O)N[C@H](C)[C@@H](O)c1ccccc1)OC)N(C)C(=O)[C@@H](NC(=O)[C@H](C(C)C)N(C)C(=O)OCc1ccc(NC(=O)[C@H](CCCNC(N)=O)NC(=O)[C@@H](NC(=O)CCCCC(=O)NCCNc2ncc(-c3cc(C)cc(F)c3)c(N3CCC(N)CC3)c2-c2nc3ccc(Cl)cc3[nH]2)C(C)C)c(O[C@@H]2O[C@H](C(=O)O)[C@@H](O)[C@H](O)[C@H]2O)c1)C(C)C [Compound 133]	34 nM	0.11 nM	6 nM	–	–	–
CC[C@H](C)[C@@H]([C@@H](CC(=O)N1CCC[C@H]1[C@H](OC)[C@@H](C)C(=O)N[C@H](C)[C@@H](O)c1ccccc1)OC)N(C)C(=O)[C@@H](NC(=O)[C@H](C(C)C)N(C)C(=O)OCc1ccc(NC(=O)[C@H](CCCNC(N)=O)NC(=O)[C@@H](NC(=O)CCOCCC(=O)NCCNc2ncc(-c3cc(C)cc(F)c3)c(N3CCC(N)CC3)c2-c2nc3ccc(Cl)cc3[nH]2)C(C)C)c(O[C@@H]2O[C@H](CO)[C@@H](O)[C@H](O)[C@H]2O)c1)C(C)C [Compound 134]	3.8 nM	0.18 nM	4.6 nM	–	–	–
CC[C@H](C)[C@@H]([C@@H](CC(=O)N1CCC[C@H]1[C@H](OC)[C@@H](C)C(=O)N[C@H](C)[C@@H](O)c1ccccc1)OC)N(C)C(=O)[C@@H](NC(=O)[C@H](C(C)C)N(C)C(=O)OCc1ccc(NC(=O)[C@H](CCCNC(N)=O)NC(=O)[C@@H](NC(=O)[C@H](CCC(=O)O)NC(=O)CCOCCC(=O)NCCNc2ncc(-c3cc(C)cc(F)c3)c(N3CCC(N)CC3)c2-c2nc3ccc(Cl)cc3[nH]2)C(C)C)c(O[C@@H]2O[C@H](CO)[C@@H](O)[C@H](O)[C@H]2O)c1)C(C)C [Compound 135] (X1-EV[Cit][PABC(3-O-βDGlc)][NMeV]V[Dil][Dolaproine]-X2)	38 nM	0.15 nM	2.8 nM	–	–	–
CC[C@H](C)[C@@H]([C@@H](CC(=O)N1CCC[C@H]1[C@H](OC)[C@@H](C)C(=O)N[C@H](C)[C@@H](O)c1ccccc1)OC)N(C)C(=O)[C@@H](NC(=O)[C@H](C(C)C)N(C)C(=O)OCc1ccc(NC(=O)[C@H](CCCNC(N)=O)NC(=O)[C@@H](NC(=O)[C@H](CCC(N)=O)NC(=O)CCOCCC(=O)NCCNc2ncc(-c3cc(C)cc(F)c3)c(N3CCC(N)CC3)c2-c2nc3ccc(Cl)cc3[nH]2)C(C)C)c(O[C@@H]2O[C@H](CO)[C@@H](O)[C@H](O)[C@H]2O)c1)C(C)C [Compound 136] (X1-QV[Cit][PABC(3-O-βDGlc)][NMeV]V[Dil][Dolaproine]-X2)	5.8 nM	0.23 nM	6.7 nM	–	–	–
CC[C@H](C)[C@@H]([C@@H](CC(=O)N1CCC[C@H]1[C@H](OC)[C@@H](C)C(=O)N[C@H](C)[C@@H](O)c1ccccc1)OC)N(C)C(=O)[C@@H](NC(=O)[C@H](C(C)C)N(C)C(=O)OCc1ccc(NC(=O)[C@H](CCCNC(N)=O)NC(=O)[C@@H](NC(=O)CCOCCOCCC(=O)NCCNc2ncc(-c3cc(C)cc(F)c3)c(N3CCC(N)CC3)c2-c2nc3ccc(Cl)cc3[nH]2)C(C)C)c(O[C@@H]2O[C@H](C(=O)O)[C@@H](O)[C@H](O)[C@H]2O)c1)C(C)C [Compound 137]	6.7 nM	0.51 nM	4.6 nM	–	–	–
